Consider 2 compounds from patent US5610319A, “Compound useful as antiproliferative agents and GARFT inhibitors” (Agouron Pharmaceuticals, Inc., priority 1995, dated 1997).

SMILES strings stand for the structures.

In series [1] the test system is GARFT. The note with it: cited from earlier work.
Series [2] deals with L1210. In words: In vitro growth inhibition, L1210, MTT, Example 2. The format is cell-based. The note with it: Mus musculus, Continuous (72-hour) exposure, mean IC50, read-out: IC50 Cell Culture L1210. On the procedure: All cultures were maintained at 37° C., 5% air-CO2 in a humidified incubator.
Stock solutions of the inhibitors were prepared in 10 mM sodium bicarbonate in water and stored in 1 ml aliquots at -20° C. for cell culture experiments. Cell growth inhibition was measured by a modification of the method of Mosmann, J. Immunol. Methods 65 (1983), 55-63.
Mid-log phase cells of each cell line were diluted to 18,500 cells/ml in fresh RPMI growth medium (Mediatech, Washington, DC) supplemented with dialyzed fetal calf serum (Hyclone Laboratories Inc., Logan, Utah) and then aliquotted into columns 2 through 12 of 96-well microtiter plates. Column 1 was filled with the same volume ([…]) of fresh medium, without cells, for use as a blank. The plates were then placed in a 37° C., 5% air-CO2 incubator. After 1 to 4 hours, plates were removed from the incubator followed by addition of Compound (21) at 10×final concentration, […] in binary dilutions, to columns 12 to 4. […] The extent of metabolized MTT was measured spectrophotometrically at 540 nm on a Molecular Devices Vmax™ kinetic microplate reader. The concentration of drug required to reduce cell growth by 50% as measured by MTT metabolism was determined by interpolation between the O.D. (minus blank) immediately above and below 50% of control O.D. (minus blank). […]

Series [3] relates to 6C3HED lymphosarcoma. Kind of series: In vivo antitumor activity, 6C3HED lymphosarcoma. Further details: species or system C3H/He female mice. As to conditions: intraperitoneal, once daily for nine days; for % Inhibition: tumor mass day 11. Here is the method:
On day zero, 2 mm^2 trocar fragments of 6C3HED lymphosarcoma were implanted subcutaneously in the axillary region into groups of six C3H/He female mice. Starting on day 1, the test compound was administered intraperitoneally in 40% Encapsin given once daily for nine days. Control animals received identical treatment without test compound. The percentage inhibition given in Table 5 below was calculated by comparing the mass of the control tumors (receiving diluent only) on day 11 to those of animals receiving test compound.

For series [4], the system named is C3H/BA mammary adenocarcinoma. Kind of series: In vivo antitumor activity, C3H/BA mammary adenocarcinoma. The arrangement: species or system C3H/He female mice. The note with it: intraperitoneal, once daily for nine days, tumor mass day 14. On the procedure: On day zero, 2 mm^2 trocar fragments of C3H/BA mammary adenocarcinoma were implanted subcutaneously in the axillary region into groups of six C3H/He female mice. Starting on day 1, the test compound was administered intraperitoneally in 40% Encapsin given once daily for nine days. Control animals received identical treatment without test compound. The percentage of inhibition was calculated by comparing the mass of the control tumors (receiving diluent only) on day 14 to those of animals receiving test compound.

Consider `Nc1nc2c(c(=O)[nH]1)CC(CCc1ccc(C(=O)N[C@@H](CCC(=O)O)C(=O)O)cc1)CN2` (some centres unmarked) [5,10-dideazatetrahydrofolic acid], for which the GARFT inhibition entry in series [1] is “specific tight binding inhibitor of GARFT”.
Usually IC50 stands for the concentration that inhibits the measured activity by half. As a reminder, the % Inhibition is the relative decrease from the control value, in per cent. A high value points to a strong effect. `Nc1nc2c(c(=O)[nH]1)SC(CCc1ccc(C(=O)N[C@@H](CCC(=O)O)C(=O)O)s1)CN2` (stereo partly drawn) [Compound 21, 4-[2-(2-Amino-4-oxo-4,6,7,8-tetrahydro-3H-pyrimido[5,4-6][1,4]thiazin-6-yl)-ethyl]-2,5-thienoylamino-L-glutamic acid]: the IC50 in series [2] amounted to 16 nM. In addition, the “% Inhibition” value in series [3] (12.5 mg/kg) turned out to be 100%; in series [3] (25 mg/kg) it was 100%; in series [4] (5 mg/kg), 16%; in series [4] (10 mg/kg), 84%; in series [4] (20 mg/kg), 100%. Besides, the “% Inhibition (given as toxic)” value in series [3] (50 mg/kg, day 11) is on record as “toxic”.
